Data: ChEMBL document CHEMBL5370611, “Discovery of 4,5,6,7-Tetrahydropyrazolo[1.5-a]pyrizine Derivatives as Core Protein Allosteric Modulators (CpAMs) for the Inhibition of Hepatitis B Virus” (J Med Chem, 2023)
In brackets after ≈: the same amount, converted by molar mass.

What was measured:
[1] = Metabolic stability in mouse liver microsomes assessed as clearance at 1 uM preincubated for 10 mins and measured upto 30 mins in presence of NADPH generating system by LC-MS/MS analysis; format: ADME, Microsome; settings: time < 40 min
[2] = Metabolic stability in human liver microsomes assessed as clearance at 1 uM preincubated for 10 mins and measured upto 30 mins in presence of NADPH generating system by LC-MS/MS analysis; format: ADME, Microsome; settings: time < 40 min
[3] = Selectivity index, ratio of CC50 for human HepDE19 cells assessed as reduction in cell viability to EC50 for HBV infected in human HepG2.2.15 cells assessed as reduction in HBV DNA replication; format: toxicity, cell-based; settings: HBV-infected HepG2.2.15 cells (EC50)
[4] = system: Hepatitis B virus; experiment: Antiviral activity against HBV infected in human HepG2.2.15 cells assessed as reduction in HBV DNA replication measured after 5 days by qPCR analysis; format: functional, organism-based; settings: HepG2.2.15, 120 h
[5] = Cytotoxicity against human HepDE19 cells assessed as reduction in cell viability measured after 5 days by CCK-8 method; format: functional; settings: HepDE19, 120 h, time 5 day
[6] = Lyophilization solubility of the compound in phosphate buffer at pH 6.5 incubated for 1 hr under stirring condition and 2 hrs under shaking condition by HPLC-UV analysis; format: physicochemical

| SMILES | CLhep predicted at 1 µM [1] | CLhep predicted at 1 µM [2] | selectivity ratio [3] | EC50 [4] | CC50 [5] | solubility at 3 h [6] |
| --- | --- | --- | --- | --- | --- | --- |
| O=C(Nc1ccc(F)c(F)c1)N1CCn2ncc(-c3ccc(F)cc3)c2C1 | 65 mL/min/kg | 16 mL/min/kg | 222 | 155 nM | 34 µM | – |
| C[C@H]1[C@H](C)n2ncc(N3CCCC3=O)c2CN1C(=O)Nc1cc(F)c(F)c(F)c1 | 73 mL/min/kg | 15 mL/min/kg | > 1920 | 52 nM | > 100 µM | 525 µg/mL (≈ 1290 µM) |
| O=C(Nc1ccc(F)c(Cl)c1)N1CCn2ncc(NC3CCCC3)c2C1 | 76 mL/min/kg | 19 mL/min/kg | > 43 | 2300 nM | > 100 µM | < 1 µg/mL |
| CCCc1cccc(NC(=O)N2CCn3ncc(-c4ccc(F)cc4)c3C2)c1 | – | – | 5 | 2710 nM | 13 µM | 4.4 µg/mL (≈ 11.6 µM) |
| C[C@@H]1Cn2ncc(-c3ccc(F)cc3)c2CN1C(=O)Nc1ccc(F)c(Cl)c1 | – | – | 234 | 111 nM | 26 µM | < 1 µg/mL |
| O=C(Nc1ccccn1)N1CCn2ncc(-c3ccc(F)cc3)c2C1 | 80 mL/min/kg | 17 mL/min/kg | – | > 10000 nM | > 100 µM | 2 µg/mL (≈ 5.93 µM) |
| O=C(NC1CCCC1)N1CCn2ncc(-c3ccc(F)cc3)c2C1 | – | – | > 54 | 1850 nM | > 100 µM | – |
| C[C@@H]1CN(C(=O)Nc2ccc(F)c(Cl)c2)Cc2c(-c3ccc(F)cc3)cnn21 | – | – | 2620 | 37 nM | 97 µM | – |
| CN(C(=O)N1CCn2ncc(-c3ccc(F)cc3)c2C1)c1ccccc1 | – | – | 42 | 2190 nM | 93 µM | – |
| O=C(Nc1ccc(F)c(Cl)c1)N1CCn2ncc(-c3ccc(F)cc3F)c2C1 | 66 mL/min/kg | 17 mL/min/kg | 1180 | 36 nM | 42 µM | < 1 µg/mL |
| C[C@H]1Cn2ncc(N3CCOCC3=O)c2CN1C(=O)Nc1cc(F)c(F)c(F)c1 | 29 mL/min/kg | 6.2 mL/min/kg | > 1590 | 63 nM | > 100 µM | 415 µg/mL (≈ 1010 µM) |
| O=C(Nc1cc(F)c(F)c(F)c1)N1CCn2ncc(N3CCCC3=O)c2C1 | 51 mL/min/kg | 6.2 mL/min/kg | 101 | 252 nM | 26 µM | 150 µg/mL (≈ 395 µM) |
| O=C(Nc1ccccc1Cl)N1CCn2ncc(-c3ccc(F)cc3)c2C1 | – | – | – | > 10000 nM | > 100 µM | – |
| O=C(Nc1ccc(Cl)cc1)N1CCn2ncc(-c3ccc(F)cc3)c2C1 | – | – | 79 | 366 nM | 29 µM | – |
| C[C@@H]1[C@H](C)N(C(=O)Nc2cc(F)c(F)c(F)c2)Cc2c(N3CCCC3=O)cnn21 | 45 mL/min/kg | 8.7 mL/min/kg | > 2500 | 40 nM | > 100 µM | 515 µg/mL (≈ 1260 µM) |
| O=C(Nc1ccc(F)c(Cl)c1)N1CCn2ncc(-c3ccccc3F)c2C1 | 74 mL/min/kg | 19 mL/min/kg | 476 | 33 nM | 16 µM | < 1 µg/mL |
| O=C(Nc1ccccc1)N1CCc2[nH]nc(-c3ccc(F)cc3)c2C1 | 63 mL/min/kg | 21 mL/min/kg | 156 | 377 nM | 59 µM | 5 µg/mL (≈ 14.9 µM) |
| O=C(Nc1cccnc1)N1CCn2ncc(-c3ccc(F)cc3)c2C1 | 49 mL/min/kg | 6 mL/min/kg | > 33 | 3030 nM | > 100 µM | 98 µg/mL (≈ 290 µM) |
| O=C(Nc1ccc(F)c(Cl)c1)N1CCn2ncc(-c3ncc(F)cn3)c2C1 | 69 mL/min/kg | 14 mL/min/kg | 250 | 128 nM | 32 µM | 6 µg/mL (≈ 15.4 µM) |
| Cc1cccc(NC(=O)N2CCn3ncc(-c4ccc(F)cc4)c3C2)c1 | – | – | 672 | 131 nM | 88 µM | – |
| Cc1ccc(NC(=O)N2CCn3ncc(-c4ccc(F)cc4)c3C2)cc1 | – | – | 28 | 1200 nM | 34 µM | – |
| O=C(Nc1cc(F)c(F)c(F)c1)N1CCn2ncc(-c3ccc(F)cc3)c2C1 | 63 mL/min/kg | 16 mL/min/kg | 80 | 387 nM | 31 µM | – |
| O=C(Cc1ccccc1)N1CCn2ncc(-c3ccc(F)cc3)c2C1 | – | – | > 32 | 3140 nM | > 100 µM | – |
